# Entries after “also recorded” stand apart in the source; their conditions may differ.
# Experiments:
# conscious BOO rats [1] = conditions: Gillespy et al., 2012; cited from earlier work
# conscious SCI rats = experiment: Cystometric parameters in conscious spinal cord injury (SCI) rats; type: in vivo, rat; conditions: i.g., Cpd (IA) 30 mg/kg, mirabegron 10 mg/kg
# Protocol: Test substance effects were compared to those of the reference substance, the β3-adrenoceptor agonist mirabegron, marketed for overactive bladder.
# • At W-5, spinal cord injury was performed at T8 level as described below. • Over W-5, rats were treated daily with gentamicin. • Over W-5 and W-4, bladder was emptied manually once a day. • From W-5 to W0, animals were weighed once per week. • At D-2 (W0), implantation of catheters was performed under isoflurane anaesthesia as described below. • At D0 (W0), cystometry was performed
# Rats were anesthetized with isoflurane (3%). Body temperature was constantly maintained at 37° C. throughout the surgery by placing animals on a thermo-regulated hot plate. A laminectomy was performed and the spinal cord was sectioned with microscissors at T8 level. Care was taken to assure that the section was complete by verifying that a slight retraction of the two segments occurred. Then the muscle was sutured and the skin fixed with staples. The scar was cleaned by Vetedine. For the Sham group, the same surgery was performed without section of the spinal cord.
# The urinary bladder was squeezed once a day for 14 days with a gentle massage of the abdomen until restoration of the micturition reflex. In addition, they were administered intramuscularly daily for one week with gentamicin (2 mg/mL, 0.2 ml/rat). Animals were euthanized if they reached humane endpoints: weight loss of greater than 20% of their body weight and/or abnormal behavioral changes indicating presence of pain and distress (prostration, self-mutilation, aggressiveness).
# Rats were anesthetized with isoflurane (3%). Body temperature was constantly maintained at 37° C. throughout the surgery by placing animals on a thermo-regulated hot plate. A polyethylene catheter (0.58 and 0.96 mm of inner and outer diameters, respectively) was implanted in the bladder through the dome for intravesical pressure recording. Another catheter (0.58 and 0.96 mm of inner and outer diameters, respectively) was implanted in the stomach for intra-gastric administration. Catheters were exteriorized at the scapular level. After surgery, each rat was housed individually up to the end of the protocol with free access to food and water.
# Animals were held under partial restraint in a restraining device. Saline was infused into the bladder at a constant flow rate of 2 or 6 mL/h for sham or SCI rats, respectively. After at least 45 min (3 complete micturition cycles corresponding to basal values), test substances were administered by intra-gastric route. Then, intravesical pressure was recorded for 90 min.
# The following cystometric parameters were analyzed (see FIG. 10): • Amplitude of micturition (AM, mmHg). • Threshold pressure (ThP, mmHg). • Intercontraction interval (ICI, sec): time between basal pressure and ThP. ICI was not presented due to different infusion rate in sham and SCI rats. ICI was only analyzed to calculate the bladder capacity. • Bladder capacity (BC, mL) BC=ICI×infusion rate. • Amplitude of non voiding contractions (NVC, mmHg) • Frequency of NVC (number per min).
# For each cystometric parameter and for each time period, the comparisons were performed as described below: • Basal values of each cystometric parameter of Sham/Vehicle and SCI/Vehicle groups were compared using unpaired student t test • Basal values of each cystometric parameter of all SCI groups were compared using one-way ANOVA or Kruskal-Wallis test • The 3 interval periods of 30 min post treatment of each cystometric parameter within the same group were compared to corresponding basal values using one-way ANOVA with repeated measures or Friedman test followed by Dunnett's or Dunn's post-test, respectively. • The 3 interval periods of 30 min post treatment of each cystometric parameter were compared between all SCI groups using one-way ANOVA or Kruskal Wallis test followed by Holm-Sidak's or Dunn's post-test versus Vehicle, respectively.
# conscious BOO rats [2] = experiment: Cystometric parameters in conscious bladder outlet obstruction (BOO) rats; type: in vivo, rat; conditions: i.g.; for BC, effect versus basal: Cpd (IA) 30 mg/kg, mirabegron 10 mg/kg
# Protocol: Test substance effects were compared to those of the reference substance, mirabegron, marketed for overactive bladder.
# • At W-6, a partial ligature of the urethra was performed. • At W-6, during 3 consecutive days, rats were treated daily with gentamycin and Ketofen® The bladder was emptied manually once a day. • From W-6 to W-1 animals were monitored and weighed once per week. • At W0 (D-2), catheters were implanted under isoflurane anesthesia. • At D0, cystometry was performed.
# Appropriate amount of Cpd (IA) was weighed and dissolved in vehicle to obtain the dosing solution with the target concentration of 3 mg/mL (as free base). […]
# […] Mirabegron (from Kemprotec) was prepared fresh on the day of administration at a final concentration of 2 mg/mL (free base form). Appropriate mass of mirabegron was weighed and dissolved in vehicle (0.5% MC) at room temperature.
smiles,measurement,setting,value
"Nc1nc(CC(=O)Nc2ccc(CCNC[C@H](O)c3ccccc3)cc2)cs1 [mirabegron, reference compound]",frequency of NVC,conscious BOO rats [1],reduces
same,"AM (amplitude of micturition), effect versus basal",conscious SCI rats,did not significantly modify
same,"AM (mmHg and % variation), effect versus vehicle",conscious SCI rats,not significantly modified
same,"BC expressed in % variation from basal, effect versus vehicle",conscious SCI rats,not significantly modified
same,"BC expressed in mL, effect versus vehicle",conscious SCI rats,no significant difference
same,"NVC amplitude (mmHg or % variation), effect versus vehicle",conscious SCI rats,not significantly modified
same,"NVC amplitude, effect versus basal",conscious SCI rats,did not significantly modified
same,"NVC frequency (NVC/min and % variation), effect versus vehicle",conscious SCI rats,not significantly modified
same,"NVC frequency, effect versus basal",conscious SCI rats,significantly decreased NVC frequency for the 30-60 and 60-90 min interval periods; also recorded: slightly but significantly decreased
same,"ThP (mmHg and % variation), effect versus vehicle",conscious SCI rats,not significantly modified
same,"ThP (threshold pressure), effect versus basal",conscious SCI rats,significantly decreased ThP for the 60-90 min post-administration interval period
same,"BC (bladder capacity), effect versus basal",conscious SCI rats; 30-min interval periods to 90 min,did not significantly modify
same,"AM (mmHg or % variation), effect versus vehicle",conscious BOO rats [2]; 0-90 min entire period,not significantly modified
same,"AM, effect versus basal",conscious BOO rats [2]; 0-90 min entire period,did not significantly modify
same,"BC expressed in % variation from basal, effect versus vehicle",conscious BOO rats [2]; 0-90 min entire period,not significantly modified
same,"BC expressed in mL, effect versus vehicle",conscious BOO rats [2]; 0-90 min entire period,no significant difference
same,"NVC amplitude expressed in % variation from basal, effect versus vehicle",conscious BOO rats [2]; 0-90 min entire period,significantly reduced
same,"NVC amplitude expressed in mmHg, effect versus vehicle",conscious BOO rats [2]; 0-90 min entire period,not significantly modified
same,"NVC amplitude, effect versus basal",conscious BOO rats [2]; 0-90 min entire period,did not modify
same,"NVC frequency (NVC/min or % variation), effect versus vehicle",conscious BOO rats [2]; 0-90 min entire period,not significantly modified
same,"NVC frequency, effect versus basal",conscious BOO rats [2]; 0-90 min entire period,significantly decreased
same,"ThP expressed in % variation from basal, effect versus vehicle",conscious BOO rats [2]; 0-90 min entire period,no significant effect
same,"ThP expressed in mmHg, effect versus vehicle",conscious BOO rats [2]; 0-90 min entire period,not significantly modified
same,"ThP, effect versus basal",conscious BOO rats [2]; 0-90 min entire period,did not modify
same,"AM (mmHg or % variation), effect versus vehicle",conscious BOO rats [2]; 60-90 min interval period,no effect
same,"AM, effect versus basal",conscious BOO rats [2]; 60-90 min interval period,did not significantly modify
same,"BC expressed in % variation from basal, effect versus vehicle",conscious BOO rats [2]; 60-90 min interval period,no significant difference
same,"BC expressed in mL, effect versus vehicle",conscious BOO rats [2]; 60-90 min interval period,no significant difference
same,"NVC amplitude expressed in % variation from basal, effect versus vehicle",conscious BOO rats [2]; 60-90 min interval period,significantly decreased
same,"NVC amplitude expressed in mmHg, effect versus vehicle",conscious BOO rats [2]; 60-90 min interval period,not significantly modified
same,"NVC amplitude, effect versus basal",conscious BOO rats [2]; 60-90 min interval period,significantly reduced
same,"NVC frequency (NVC/min or % variation), effect versus vehicle",conscious BOO rats [2]; 60-90 min interval period,unaffected
same,"NVC frequency, effect versus basal",conscious BOO rats [2]; 60-90 min interval period,significantly decreased
same,"ThP expressed in % variation from basal, effect versus vehicle",conscious BOO rats [2]; 60-90 min interval period,significantly decreased
same,"ThP expressed in mmHg, effect versus vehicle",conscious BOO rats [2]; 60-90 min interval period,not significantly modified
same,"ThP, effect versus basal",conscious BOO rats [2]; 60-90 min interval period,without effect
same,"BC, effect versus basal",conscious BOO rats [2]; 0-90 min entire period,did not significantly modify
same,"BC, effect versus basal",conscious BOO rats [2]; 60-90 min interval period,significantly increased
